In patent publication US11649255B2, “Indazoles as hematopoietic progenitor kinase 1 (HPK1) inhibitors and methods using same” (1st Biotherapeutics, Inc., priority 2020, dated 2023) one finds IC50 data, which are given here for 29 molecules.

A word on the pIC50: it is the IC50 on a negative log10 scale, so that one unit is a factor of ten.

pIC50: −log10 of the molar value.

This experiment deals with recombinant human HPK1 (Homo sapiens (Human), UniProt Q92918). As to the kind of experiment: HPK1 kinase assay (ADP-Glo). Type of experiment: biochemical. As to conditions: 25 μM ATP, MBP substrate. The procedure, abridged: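 Activity was read as ADP formed, detected by ADP-Glo luminescence after the reaction of 5 ng recombinant human HPK1 with MBP and ATP (stocks 0.5 μg/μl and 25 μM) for 40 min at 30 °C. Buffer was Tris pH 7.5 with MgCl2, BSA and DTT, with compound in 0.5% DMSO. IC50 came from inhibition curves.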
Sequence of recombinant human HPK1 (Q92918 whole entry): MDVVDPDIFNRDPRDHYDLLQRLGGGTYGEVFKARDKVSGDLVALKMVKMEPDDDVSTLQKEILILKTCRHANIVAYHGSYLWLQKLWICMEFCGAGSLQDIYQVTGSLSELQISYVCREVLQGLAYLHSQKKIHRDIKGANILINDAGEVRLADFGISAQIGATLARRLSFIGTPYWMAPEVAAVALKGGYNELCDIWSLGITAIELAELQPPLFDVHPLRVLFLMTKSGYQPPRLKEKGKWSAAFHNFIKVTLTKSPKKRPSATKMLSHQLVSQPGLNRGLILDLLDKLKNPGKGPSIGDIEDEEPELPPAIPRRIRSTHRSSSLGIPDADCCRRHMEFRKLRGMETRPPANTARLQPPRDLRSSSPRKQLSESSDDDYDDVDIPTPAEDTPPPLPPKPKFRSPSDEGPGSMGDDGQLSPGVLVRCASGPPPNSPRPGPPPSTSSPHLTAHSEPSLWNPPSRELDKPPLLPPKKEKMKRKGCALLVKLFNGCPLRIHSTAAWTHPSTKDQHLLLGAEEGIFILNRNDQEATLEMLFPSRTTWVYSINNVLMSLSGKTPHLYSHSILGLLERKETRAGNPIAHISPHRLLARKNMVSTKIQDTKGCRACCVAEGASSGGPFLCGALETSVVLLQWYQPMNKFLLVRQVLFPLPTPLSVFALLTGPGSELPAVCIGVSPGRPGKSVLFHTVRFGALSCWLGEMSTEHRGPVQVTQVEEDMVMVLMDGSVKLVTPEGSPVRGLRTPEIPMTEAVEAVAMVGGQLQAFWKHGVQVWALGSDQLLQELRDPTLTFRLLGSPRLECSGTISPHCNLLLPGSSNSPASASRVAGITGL
On the technique in general: ADP-Glo turns the ADP formed in a reaction into a luminescent signal.
Consider `O=C(O)c1c(F)c(Cl)c(-c2ccc3nc(NC(=O)[C@@H]4C[C@@H]4F)cn3c2)c2cn[nH]c12` [Example 314, 5-chloro-6-fluoro-4-(2-((1S,2S)-2-fluorocyclopropane-1-carboxamido)imidazo[1,2-a]pyridin-6-yl)-1H-indazole-7-carboxylic acid], for which the pIC50 is below 6.00.

With `COc1ccc2[nH]ncc2c1-c1ccc2nc(NC(=O)C3CC3)cn2c1` [Example 224, N-(6-(5-methoxy-1H-indazol-4-yl)imidazo[1,2-a]pyridin-2-yl)cyclopropanecarboxamide], the pIC50 was 6.30 to 7.00.

In the case of `Cc1c(F)c(C(=O)O)c2[nH]ncc2c1-c1ccc2nc(NC(=O)[C@@H]3C[C@@H]3F)sc2n1` [Example 188, 6-fluoro-4-(2-((1S,2S)-2-fluorocyclopropane-1-carboxamido)thiazolo[5,4-b]pyridin-5-yl)-5-methyl-1H-indazole-7-carboxylic acid], the pIC50 is below 6.00.

As for `CN(c1ccncc1)c1c(F)c(Cl)c(-c2ccn3nc(NC(=O)[C@@H]4C[C@@H]4F)cc3c2)c2cn[nH]c12` [Example 614, (1S,2S)-N-(5-(5-chloro-6-fluoro-7-(methyl(pyridin-4-yl)amino)-1H-indazol-4-yl)pyrazolo[1,5-a]pyridin-2-yl)-2-fluorocyclopropane-1-carboxamide], the pIC50 is above 7.00.

Consider `Cc1ccc2[nH]ncc2c1-c1ccc2nc(NC(=O)c3ccccc3)sc2c1` [Example 8, N-(6-(5-methyl-1H-indazol-4-yl)benzo[d]thiazol-2-yl)benzamide], for which the negative logarithm of the IC50 (pIC50) is below 6.00.

On to `O=C(NCc1ccsc1)c1ccc2[nH]ncc2c1-c1ccc2nc(NC(=O)C3CC3)sc2c1` [Example 23, 4-(2-(cyclopropanecarboxamido)benzo[d]thiazol-6-yl)-N-(thiophen-3-ylmethyl)-1H-indazole-5-carboxamide], for which the pIC50 is below 6.00.

As to `CC(=O)c1c(F)c(Cl)c(-c2ccn3nc(NC(=O)[C@@H]4C[C@@H]4F)cc3c2)c2cn[nH]c12` [Example 575, (1S,2S)-N-(5-(7-acetyl-5-chloro-6-fluoro-1H-indazol-4-yl)pyrazolo[1,5-a]pyridin-2-yl)-2-fluorocyclopropane-1-carboxamide], the pIC50 was above 7.00.

Consider `O=C(Nc1cn2cc(-c3c(Cl)c(F)c(Cn4cnnn4)c4[nH]ncc34)ccc2n1)[C@@H]1C[C@@H]1F` [Example 392, (1S,2S)-N-(6-(7-((1-tetrazol-1-yl)methyl)-5-chloro-6-fluoro-1H-indazol-4-yl)imidazo[1,2-a]pyridin-2-yl)-2-fluorocyclopropane-1-carboxamide], for which the pIC50 is above 7.00.

For `NCC1CCN(c2c(F)c(Cl)c(-c3ccc4nc(NC(=O)[C@@H]5C[C@@H]5F)sc4c3)c3cn[nH]c23)C1` (stereo partly drawn) [Example 91, (1S,2S)-N-(6-(7-(3-(aminomethyl)pyrrolidin-1-yl)-5-chloro-6-fluoro-1H-indazol-4-yl)benzo[d]thiazol-2-yl)-2-fluorocyclopropanecarboxamide], the pIC50 was 6.30 to 7.00.

As for `O=C(Nc1cc2cc(-c3c(Cl)c(F)c(N4CCC(F)C4)c4[nH]ncc34)ccn2n1)[C@@H]1C[C@@H]1F` (stereo partly drawn) [Example 642, (1S,2S)-N-(5-(5-chloro-6-fluoro-7-(3-fluoropyrrolidin-1-yl)-1H-indazol-4-yl)pyrazolo[1,5-a]pyridin-2-yl)-2-fluorocyclopropane-1-carboxamide], the pIC50 was above 7.00.

As for `O=C(Nc1nc2ccc(-c3c(Cl)c(F)cc4[nH]ncc34)nc2s1)[C@@H]1C[C@@H]1F` [Example 153, (1S,2S)-N-(5-(5-chloro-6-fluoro-1H-indazol-4-yl)thiazolo[5,4-b]pyridin-2-yl)-2-fluorocyclopropane-1-carboxamide], the pIC50 was above 7.00.

For `Cc1c(F)c(C)c2[nH]ncc2c1-c1ccc2nc(NC(=O)[C@@H]3C[C@@H]3F)sc2c1` [Example 59, (1S,2S)-2-fluoro-N-(6-(6-fluoro-5,7-dimethyl-1H-indazol-4-yl)benzo[d]thiazol-2-yl)cyclopropane-1-carboxamide], the pIC50 is above 7.00.

Turning to `CCc1c(F)c(F)c2[nH]ncc2c1-c1ccc2nc(NC(=O)[C@@H]3C[C@@H]3F)cn2c1` [Example 298, (1S,2S)-N-(6-(5-ethyl-6,7-difluoro-1H-indazol-4-yl)imidazo[1,2-a]pyridin-2-yl)-2-fluorocyclopropane-1-carboxamide], the pIC50 was above 7.00.

For `CCc1c(F)c(N(C)CC)c2[nH]ncc2c1-c1ccc2nc(NC(=O)[C@@H]3C[C@@H]3F)sc2c1` [Example 136, (1S,2S)-N-(6-(5-ethyl-7-(ethyl(methyl)amino)-6-fluoro-1H-indazol-4-yl)benzo[d]thiazol-2-yl)-2-fluorocyclopropane-1-carboxamide], the pIC50 was above 7.00.

Consider `COC[C@@H](C)c1c(F)c(Cl)c(-c2ccc3nc(NC(=O)[C@@H]4C[C@@H]4F)cn3c2)c2cn[nH]c12` [Example 423, (1S,2S)-N-(6-(5-chloro-6-fluoro-7-((S)-1-methoxypropan-2-yl)-1H-indazol-4-yl)imidazo[1,2-a]pyridin-2-yl)-2-fluorocyclopropane-1-carboxamide], for which the pIC50 was above 7.00.

Consider `CNC(=O)N(C)c1c(F)c(Cl)c(-c2ccc3nc(NC(=O)[C@@H]4C[C@@H]4F)cn3c2)c2cn[nH]c12` [Example 435, (1S,2S)-N-(6-(5-chloro-7-(1,3-dimethylureido)-6-fluoro-1H-indazol-4-yl)imidazo[1,2-a]pyridin-2-yl)-2-fluorocyclopropane-1-carboxamide], for which the pIC50 is above 7.00.

With `CNC(=O)c1c(F)c(C)c(-c2ccc3nc(NC(=O)[C@@H]4C[C@@H]4F)cn3c2)c2cn[nH]c12` [Example 338, 6-fluoro-4-(2-((1S,2S)-2-fluorocyclopropane-1-carboxamido)imidazo[1,2-a]pyridin-6-yl)-N,5-dimethyl-1H-indazole-7-carboxamide], the pIC50 is 6.30 to 7.00.

With `CCN(C)C(=O)c1c(F)c(Cl)c(-c2ccc3nc(NC(=O)[C@@H]4C[C@@H]4F)cn3c2)c2cn[nH]c12` [Example 341, 5-chloro-N-ethyl-6-fluoro-4-(2-((1S,2S)-2-fluorocyclopropane-1-carboxamido)imidazo[1,2-a]pyridin-6-yl)-N-methyl-1H-indazole-7-carboxamide], the pIC50 was above 7.00.

Consider `CSc1c(F)c(F)c2[nH]ncc2c1-c1ccn2nc(NC(=O)[C@H]3C[C@H]3F)cc2c1` [Example 598, (1R,2R)-N-(5-(6,7-difluoro-5-(methylthio)-1H-indazol-4-yl)pyrazolo[1,5-a]pyridin-2-yl)-2-fluorocyclopropane-1-carboxamide], for which the pIC50 was above 7.00.

With `O=C(Nc1cn2cc(-c3c(C(F)F)ccc4[nH]ncc34)ccc2n1)C1CC1` [Example 249, N-(6-(5-(difluoromethyl)-1H-indazol-4-yl)imidazo[1,2-a]pyridin-2-yl)cyclopropanecarboxamide], the pIC50 was 6.30 to 7.00.

As for `Cc1c(F)cc2[nH]nc(C3CC3)c2c1-c1ccn2nc(NC(=O)[C@@H]3C[C@@H]3F)cc2c1` [Example 473, (1S,2S)-N-(5-(3-cyclopropyl-6-fluoro-5-methyl-1H-indazol-4-yl)pyrazolo[1,5-a]pyridin-2-yl)-2-fluorocyclopropane-1-carboxamide], the pIC50 is below 6.00.

For `N#Cc1ccc2[nH]ncc2c1-c1ccn2nc(NC(=O)[C@@H]3C[C@@H]3F)cc2c1` [Example 456, (1S,2S)-N-(5-(5-cyano-1H-indazol-4-yl)pyrazolo[1,5-a]pyridin-2-yl)-2-fluorocyclopropane-1-carboxamide], the pIC50 was 6.00 to 6.30.

For `O=C(Nc1cn2cc(-c3c(Br)c(F)cc4[nH]ncc34)ccc2n1)C1CC1` [Example 231, N-(6-(5-bromo-6-fluoro-1H-indazol-4-yl)imidazo[1,2-a]pyridin-2-yl)cyclopropanecarboxamide], the negative logarithm of the IC50 (pIC50) is below 6.00.

Take `CCOc1cc(C)c(-c2ccc3nc(NC(=O)[C@@H]4C[C@@H]4F)cn3c2)c2cn[nH]c12` [Example 287, (1S,2S)-N-(6-(7-ethoxy-5-methyl-1H-indazol-4-yl)imidazo[1,2-a]pyridin-2-yl)-2-fluorocyclopropane-1-carboxamide]: the pIC50 is above 7.00.

With `CCc1c(F)c(C(F)(F)F)c2[nH]ncc2c1-c1ccc2nc(NC(=O)[C@@H]3C[C@@H]3F)sc2n1` [Example 210, (1S,2S)-N-(5-(5-ethyl-6-fluoro-7-(trifluoromethyl)-1H-indazol-4-yl)thiazolo[5,4-b]pyridin-2-yl)-2-fluorocyclopropane-1-carboxamide], the pIC50 is above 7.00.

Regarding `O=C(Nc1nc2ccc(-c3c(F)c(C(F)(F)F)cc4[nH]ncc34)nc2s1)[C@@H]1C[C@@H]1F` [Example 171, (1S,2S)-2-fluoro-N-(5-(5-fluoro-6-(trifluoromethyl)-1H-indazol-4-yl)thiazolo[5,4-b]pyridin-2-yl)cyclopropane-1-carboxamide], the pIC50 is below 6.00.

Take `C#Cc1n[nH]c2cc(F)c(C)c(-c3ccn4nc(NC(=O)[C@@H]5C[C@@H]5F)cc4c3)c12` [Example 472, (1S,2S)-N-(5-(3-ethynyl-6-fluoro-5-methyl-1H-indazol-4-yl)pyrazolo[1,5-a]pyridin-2-yl)-2-fluorocyclopropane-1-carboxamide]: the pIC50 is below 6.00.

In the case of `CNC(=O)OCCN(C)c1c(F)c(C)c(-c2ccc3nc(NC(=O)[C@@H]4C[C@@H]4F)sc3n2)c2cn[nH]c12` [Example 202, 2-((6-fluoro-4-(2-((1S,2S)-2-fluorocyclopropane-1-carboxamido)thiazolo[5,4-b]pyridin-5-yl)-5-methyl-1H-indazol-7-yl)(methyl)amino)ethyl methylcarbamate], the pIC50 was above 7.00.

Take `O=Cc1c(F)c(Cl)c(-c2ccn3nc(NC(=O)[C@@H]4C[C@@H]4F)cc3c2)c2cn[nH]c12` [Example 626, (1S,2S)-N-(5-(5-chloro-6-fluoro-7-formyl-1H-indazol-4-yl)pyrazolo[1,5-a]pyridin-2-yl)-2-fluorocyclopropane-1-carboxamide]: the pIC50 is above 7.00.
